Experimental findings from PubChem BioAssay (NCI) are described below.

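Following 48 hours of exposure in 96-well plates, responses at five concentrations were used to interpolate endpoints linearly. GI50: concentration for 50% inhibition of growth. TGI: concentration producing complete growth inhibition.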

Test in all cases: NCI tumour cell line growth inhibition, 48 h
For test [1], the system named is DLD-1 colon.
For test [2], the system named is SNB-78 CNS.
Test [3] deals with DMS 114 small cell lung.
The test system of test [4] is XF 498 CNS.
Test [5] concerns M19-MEL melanoma.
The test system of test [6] is KM20L2 colon.
Test [7] has as its system DMS 273 small cell lung.
Test [8] concerns RXF-631 renal.
For test [9], the system named is MDA-N.

As for `COC(=O)C(Cc1nc2ccc(Cl)cc2[nH]c1=O)/C(=N\N)C(=O)Nc1cc(C)c(Cl)cc1S(=O)(=O)O` (configuration not stated), the TGI in test [1], in [2] and in test [3] was more than 100 µM in each case.

Turning to `O=C1/C(=C/c2ccc(Cl)cc2)CCC1CCN1CCOCC1` (configuration not stated), the TGI in [4], in test [1], in test [2], in test [3], in [5] and in test [6] was more than 100 µM in each case. Further, the TGI in [7] and in test [8] was more than 100 µM in each case.

As for `Cc1ccc(NC(=O)CCc2cc(C(C)(C)C)nc(=S)[nH]2)cc1C`, the TGI in test [4], in [2], in test [3], in [6] and in [7] was more than 100 µM throughout.

In the case of `COc1cccc(C2=NC(C(C)C)CO2)c1` (configuration not stated), the TGI in test [4], in [1], in test [2], in test [3], in [5] and in test [6] was more than 100 µM in each case. Also, the TGI in [7] is more than 100 µM.

Regarding `CCC(C)COC(=O)c1ccc(N=Cc2ccc(C=Nc3ccc(C(=O)OCC(C)CC)cc3)cc2)cc1` (configuration not stated), the TGI in test [1], in test [2], in [3], in test [6], in test [7] and in [8] was more than 100 µM throughout.

Take `CC12CP(=O)(c3ccccc3)CC1C2(Cl)Cl` (configuration not stated): the TGI in [4], in test [1], in test [2], in test [3], in [5] and in [6] was more than 100 µM each time. Further, in test [7], the TGI was more than 100 µM.

Molecule `CCCC(=O)Nc1cc2c3c(c1)CCCN3CCC2` came in with a TGI in test [9] of more than 10 µM.

With `Cc1cc(Cl)ccc1NC(=O)C(=O)Cc1nc2ccccc2o1`, the TGI in [4], in [1], in [2], in test [3], in test [5] and in test [6] was more than 100 µM throughout. For the same molecule, the TGI in test [7] and in test [8] was more than 100 µM each time.

Take `CCOc1ccccc1NC(=O)C(=O)CC(=O)c1sc(Nc2nnc(-c3ccc(Cl)c(Cl)c3)o2)nc1C`: the TGI in test [1], in [2], in [3], in test [5], in test [6] and in test [7] was more than 100 µM each time.

In the case of `COc1ccc(CC2NCCc3c2[nH]c2ccccc32)cc1` (configuration not stated), the TGI in test [4] was 66.5 µM; in test [1] it was more than 100 µM; in [2], more than 100 µM; in test [3], more than 100 µM; in [5], more than 100 µM; in test [6], more than 100 µM. Besides, the TGI in test [7] was 87.7 µM; in test [8] it was 73.5 µM.

With `CCN1CCC(O)(c2ccc(OC)cc2)C(C(=O)c2ccc(OC)cc2)C1` (configuration not stated), the TGI is 31.7 µM in test [4]; 36.3 µM in test [1]; 59.3 µM in test [2]; 40.8 µM in [3]; 34.9 µM in test [5]; 33.2 µM in test [6]. In addition, the TGI in [7] came out at 50.2 µM; in test [8], 47.5 µM.

Turning to `NC(=O)C12CC3CC(CC(F)(C3)C1)C2`, the TGI in test [4], in test [1], in test [2], in test [3], in test [5] and in test [6] was more than 100 µM throughout. In [7], this molecule registered a TGI of more than 100 µM.

Regarding `O=c1ccn([C@H]2CSC[C@@H](CO)C2)c(=O)[nH]1`, the TGI in [1], in test [2], in test [3], in test [5], in [6] and in test [7] was more than 100 µM each time. The same molecule had a TGI in test [8] of more than 100 µM.

`CCCc1nc(NC#N)nc(C(=O)Nc2ccccc2)c1CC`: the TGI in [4], in test [1], in test [2], in [3], in test [5] and in [6] was more than 100 µM in each case. Besides, the TGI in test [7] and in test [8] was more than 100 µM in each case.

`Cc1c2c(C#N)nccc2c(C)c2c1c1ccccc1n2Cc1ccccc1` had a TGI in test [9] of more than 100 µM.

Turning to `COc1ccc(NC(=O)/C(Cc2cc(=O)oc3cc(O)ccc23)=N\NC(C)(C)C)c(OC)c1`, the TGI in [4], in [2], in test [5] and in test [6] was more than 100 µM throughout.

As to `COc1cc2c(c(OC)c1OC)-c1ccc(SC)c(=O)cc1C(NC=O)CC2` (configuration not stated), the TGI is more than 100 µM in test [4]; more than 100 µM in test [1]; more than 100 µM in [2]; less than 0.01 µM in test [9]; less than 0.01 µM in test [3]; more than 100 µM in test [5]. Further, the results for the TGI in test [6] and in [7] were less than 0.01 µM and more than 100 µM, respectively.

`C1=CC(N(c2ccccc2)C2C=CCCC2)CCC1` (configuration not stated): the TGI in test [1], in [3], in test [5], in test [6] and in test [7] was more than 100 µM throughout.

For the molecule `CN(C)CC[PH+](c1ccccc1)c1ccccc1.CN(C)CC[PH+](c1ccccc1)c1ccccc1.[Cl-].[Pd+2]`, in test [9], the GI50 is more than 100 µM and the TGI was more than 100 µM.

Take `CC(=O)c1sc(Nc2nnc(-c3ccc(-c4nnc(Nc5nc(C)c(C(C)=O)s5)o4)cc3)o2)nc1C`: the TGI in test [1], in [2], in [3], in test [6] and in [7] was more than 100 µM each time.

Consider `CCOC(=O)Nc1ccc(C)c(NC(=O)OCC)c1`, for which the TGI in test [9] was more than 100 µM.

As for `CCC[CH2][Sn]([Cl])([CH2]CCC)[CH2]CCC`, the GI50 in test [4] was 0.0599 µM; in [1], 0.0853 µM; in [2], 0.129 µM; in [3], 0.068 µM; in test [5], 0.11 µM; in test [6] it was 0.136 µM. Besides, the TGI was 0.202 µM in test [4]; 1.02 µM in test [1]; 0.313 µM in test [2]; 0.225 µM in test [3]; 0.236 µM in test [5]; 0.295 µM in test [6].

Take `N#CC(C(=O)C(=O)C(C#N)c1ccc(Br)cc1)c1ccc(Br)cc1` (configuration not stated): the TGI in test [1] came to 34.5 µM; in test [2], 37.4 µM; in test [3] it was 26.5 µM; in test [5], 25.8 µM; in test [6], 27.7 µM; in test [7] it was 24.9 µM.

With `Cc1ccc(/C=C/C(=O)c2sc(-c3nc(C)c(C(=O)/C=C/c4ccc(C)cc4)s3)nc2C)cc1`, the TGI in test [1], in [2], in [3], in test [5], in test [6] and in [7] was more than 100 µM in each case. The molecule also showed a TGI in test [8] of more than 100 µM.

In the case of `OCC1OC(c2nc(C3=NCCCN3)cs2)C(O)C1O` (configuration not stated), the TGI in test [4], in test [1], in [2], in [3], in test [5] and in [6] was more than 100 µM throughout. Besides, the TGI in [7] and in test [8] was more than 100 µM in each case.

For `CC(=O)OC12C=CC(=O)N1c1ccccc1C(=O)O2` (configuration not stated), the TGI in [4], in [1], in test [2], in [5], in test [6] and in test [7] was more than 100 µM throughout.

As to `CCOc1ccc(NC(=O)CC#N)cc1`, the TGI in test [4], in [1], in test [2], in test [5], in [6] and in [7] was more than 100 µM each time. The TGI in [8] was more than 100 µM.

With `CCOC(=O)C(=[N+]=[N-])[Si](C)(C)C`, the TGI in test [4], in test [1], in test [2], in test [3], in [5] and in [6] was more than 100 µM each time. The molecule further registered a TGI in [7] of more than 100 µM.

With `CC(=O)Oc1c2c(c(O)c3ccccc13)C(n1cnc3c(ncn3C3OC(CO)C4OC(C)(C)OC43)c1=N)CCC2` (configuration not stated), the TGI came out at 27.4 µM in test [1]; 59.6 µM in test [2]; 21.7 µM in test [3]; 23.8 µM in test [5]; 53.5 µM in test [6]; 40.6 µM in [7].

As to `O=C(CCc1n[nH]c(=S)o1)Nc1ccccc1C(F)(F)F`, the TGI in test [1], in test [2], in [3], in test [5], in [6] and in test [7] was more than 100 µM in each case. This molecule registered a TGI in test [8] of more than 100 µM.

In test [9], `O=C(c1ccccc1Br)C(F)(F)F` came in with a TGI of more than 100 µM.

For the molecule `O=C(Nc1nc(=S)c2c(ncn2CCOC(=O)c2ccccc2)[nH]1)c1ccccc1`, the TGI in test [1], in test [2], in test [3], in test [5], in test [6] and in [7] was more than 100 µM in each case.

`O=C(/C=C/c1cccc2ccccc12)c1ccccc1Cl`: the TGI in test [4] amounted to 20.6 µM; in test [1], 24 µM; in [2], 40.9 µM; in test [3], 27.6 µM; in test [6], 25.6 µM; in test [7], 31.5 µM. Besides, in test [8], the TGI is 41.9 µM.

Consider `Cc1cc(N(CCC#N)CCC#N)ccc1N=Nc1ccc(C(=O)O)cc1`, for which the TGI in test [4], in test [2], in test [3], in test [5] and in test [7] was more than 100 µM each time.

In the case of `CN(C)CC1CCCC/C1=N/OC(=O)c1ccc(Cl)cc1` (configuration not stated), the TGI in test [4], in test [1], in [2], in test [5], in test [6] and in test [7] was more than 100 µM each time.

`Oc1cccnc1[Se]` returned a TGI in test [9] of more than 100 µM.

As to `Cc1[nH]c2ccccc2c1C(=O)/C=C/c1ccccc1O`, the TGI in test [4], in test [1], in test [5], in test [6] and in test [7] was more than 100 µM throughout.
